Source: patent publication US5985926A, “Method for inhibiting intracellular viral replication” (Cell Therapeutics, Inc., priority 1997, dated 1999)

Test system: HIV-1 strain JR-CSF in PBL
Test: HIV-1 p24 antigen expression in acutely infected peripheral blood lymphocytes (PBL)
Assay type: cell-based, HIV-1; human cells
Settings: Human immunodeficiency virus 1, Lymphocyte, clinical isolate
Experimental: FIG. 17 illustrates a dose response curves of CT2576 on constitutive, TNF-α, and IL-6-mediated expression of HIV-1 in a chronically infected U1 cell line (left Y-axis) and of CT3537 on HIV expression in PBL acutely infected with the JR-CSF primary isolate (right Y-axis). U1 cells were incubated for four days after the addition of CT2576 with or without TNF-α (20 pg/ml) or IL-6 (1 ng/ml). PBL were inoculated with HIV at 10 ng virus/10^6 cells/well and incubated with various concentrations of CT3537 for 7 days. Each data point represents the average expression levels of HIV-1 p24-antigen in the cell supernatants measured by ELISA from triplicate samples with error bar indicating the SD.
Stable cell lines 293tar, 293tat and 293tat2 were generated by transfections using conditions described in (Tate et al., FASEB J. 4:227-231, 1990) with the plasmid pHIV.AP alone or along with either pHIV.tat or pSV2tat72, respectively. The assay of HIV-1 p24 antigen expression in the chronically HIV-1-infected promonocytic line U1 after 4 days and in acutely infected peripheral blood lymphocytes (PBL) after 7 days were described (Peterson et al., J. Clin. Invest. 89:574-580, 1992, and Brighty et al., Proc Natl. Acad. Sci. USA 88:7802-7805, 1991). […]

SMILES: CCCCCCCCNCC(O)CCCCCCCCCn1c(=O)c2c(ncn2C)n(C)c1=O (stereo not shown) [CT2576, 1-(11-octylamino-10-hydroxyundecyl)-3,7-dimethylxanthine]
- IC50: ~1000 nM
